Results on 3 compounds are retold here after US7732134B2, “Methods to predict cholesterol elevation during immunosuppressant therapy” (Novartis AG, priority 2002, dated 2010).

The subject of one series is cholesterol biosynthesis. Conditions: See El-Omar et al.; cited from earlier work.
Series [1] can be described thus: RAD B251 clinical trial: total cholesterol levels by IL-1β genotype and treatment group. Conditions: for LS Mean Total Cholesterol Levels: RAD (1.5 and 3.0 mg/day), last visit; for odds ratio for increase in total blood cholesterol levels to a final concentration ≧240 mg/dL: RAD/NEORAL® regimen. In kind it is in vivo, human. From the text: The RAD B251 study was a randomized, multicenter, double-blind, parallel group study of the efficacy and safety of everolimus (Certican™) (RAD) versus mycophenolate mofetil (MMF) used in combination with cyclosporine (CsA) (NEORAL®) and prednisone. The study consisted of three periods: a Screening period, a Baseline period and a Double-Blind Treatment period. […] Determination of allograft function was by the investigator's judgement and was based upon adequate urine output and evidence of falling creatinine levels. The day of randomization and administration of the first dose of study medication was recorded as Day 1 of the study. […]
(§1) A treatment period of three years followed transplantation. […] Renal biopsies were required at Baseline (may be intra-operative) and at the time of any suspected rejection. Blinded study drug administration ceased at 3 years.
(§2) Male and female patients, 16-65 years of age who are scheduled to undergo primary cadaveric, living unrelated or non-HLA identical related donor kidney transplantation, were allowed to enter the study. Patients who discontinued the study prematurely were not replaced. Each patient had to meet all of the inclusion/exclusion criteria to be eligible for entry into the study.
(The values on the figures, etc. refer to the absolute serum cholesterol levels at the last visit, however during the statistical analysis this value was defined as the dependent variable and the cholesterol level at baseline as the independent variable thus automatically taking into consideration the baseline level).
A total of 82 unique samples from the RAD B251 clinical trial were genotyped upon their consent to participate in the pharmacogenetic evaluation. This represents about 15% of the total population that participated in the RAD B251 clinical trial. Blood samples from each patient were collected at the individual trial sites and then shipped to Covance (Geneva, Switzerland).
An analysis of covariance model was used for the analysis of the effect of genotype and treatment on cholesterol levels using the 24-month lab_b.sd2 RADB 251 clinical data set. Terms in the model include the final cholesterol level, the initial cholesterol level as the covariant, and the genotype and treatment as the main effectors. The odds ratios, 95% confidence limits, and Chi-square analysis were calculated where applicable. All statistical analyses were performed using the SAS 8.02 software. To correct for multiple testing, the Bonferroni correction method was performed. […]

The nature of series [2]: RAD B251 clinical trial: HDL cholesterol levels by IL-1β genotype and treatment group. In kind it is in vivo, human. Conditions: last visit.
Description: The RAD B251 study was a randomized, multicenter, double-blind, parallel group study of the efficacy and safety of everolimus (Certican™) (RAD) versus mycophenolate mofetil (MMF) used in combination with cyclosporine (CsA) (NEORAL®) and prednisone. The study consisted of three periods: a Screening period, a Baseline period and a Double-Blind Treatment period. Following the Baseline assessments, patients who meet the inclusion/exclusion criteria were randomized into one of the three treatment groups (1:1:1) once it has been ascertained that the allograft is functional and that oral medication can be tolerated (within 48 hours post-transplantation). Determination of allograft function was by the investigator's judgement and was based upon adequate urine output and evidence of falling creatinine levels. The day of randomization and administration of the first dose of study medication was recorded as Day 1 of the study. […]
as §1, §2
(§3) A total of 82 unique samples from the RAD B251 clinical trial were genotyped upon their consent to participate in the pharmacogenetic evaluation. This represents about 15% of the total population that participated in the RAD B251 clinical trial. Blood samples from each patient were collected at the individual trial sites and then shipped to Covance (Geneva, Switzerland). The genomic DNA of each patient was extracted from the blood by Covance using the PUREGENE™ DNA Isolation Kit (D-50K) (Gentra, Minneapolis, Minn.).
(§4) An analysis of covariance model was used for the analysis of the effect of genotype and treatment on cholesterol levels using the 24-month lab_b.sd2 RADB 251 clinical data set. Terms in the model include the final cholesterol level, the initial cholesterol level as the covariant, and the genotype and treatment as the main effectors. The odds ratios, 95% confidence limits, and Chi-square analysis were calculated where applicable. All statistical analyses were performed using the SAS 8.02 software. To correct for multiple testing, the Bonferroni correction method was performed.

Series [3] in a line: RAD B251 clinical trial: LDL cholesterol levels by IL-1β genotype and treatment group. Conditions: last visit. In kind it is in vivo, human.
Description: The RAD B251 study was a randomized, multicenter, double-blind, parallel group study of the efficacy and safety of everolimus (Certican™) (RAD) versus mycophenolate mofetil (MMF) used in combination with cyclosporine (CsA) (NEORAL®) and prednisone. The study consisted of three periods: a Screening period, a Baseline period and a Double-Blind Treatment period. Following the Baseline assessments, patients who meet the inclusion/exclusion criteria were randomized into one of the three treatment groups (1:1:1) once it has been ascertained that the allograft is functional and that oral medication can be tolerated (within 48 hours post-transplantation). Determination of allograft function was by the investigator's judgement and was based upon adequate urine output and evidence of falling creatinine levels. The day of randomization and administration of the first dose of study medication was recorded as Day 1 of the study. The three treatment groups are described below: • Dose Level 1: 0.75 mg RAD bid+NEORAL®+prednisone • Dose Level 2: 1.5 mg RAD bid+NEORAL®+prednisone • Comparator 1 g MMF bid+NEORAL®+prednisone Concomitant Therapy Initiation and Maintenance of NEORAL®
as §1, §2, §3, §4

[4] abbreviates: (−31) IL-1β CC genotype, RAD (1.5 and 3.0 mg/day).
The mark [5] stands for this setting: (−31) IL-1β CT genotype, RAD (1.5 and 3.0 mg/day).
The mark [6] stands for this setting: (−31) IL-1β TT genotype, RAD (1.5 and 3.0 mg/day).
Where [7] appears, read: (−511) IL-1β CC genotype, RAD (1.5 and 3.0 mg/day).
[8] abbreviates: (−511) IL-1β CT genotype, RAD (1.5 and 3.0 mg/day).
Where [9] appears, read: (−511) IL-1β TT genotype, RAD (1.5 and 3.0 mg/day).
The mark [10] stands for this setting: (−31) IL-1β CC genotype, MMF (2 mg/day).
The mark [11] stands for this setting: (−31) IL-1β CT genotype, MMF (2 mg/day).
Where [12] appears, read: (−31) IL-1β TT genotype, MMF (2 mg/day).
Where [13] appears, read: (−511) IL-1β CC genotype, MMF (2 mg/day).
Where [14] appears, read: (−511) IL-1β CT genotype, MMF (2 mg/day).
Where [15] appears, read: (−511) IL-1β TT genotype, MMF (2 mg/day).

On to “IL-1β: interleukin-1-beta, cytokine reported to inhibit cholesterol biosynthesis”, for which the “inhibition of cholesterol biosynthesis” value in the series with cholesterol biosynthesis is 25%.
Take `CO[C@H]1C[C@@H]2CC[C@@H](C)[C@@](O)(O2)C(=O)C(=O)N2CCCC[C@H]2C(=O)O[C@H]([C@H](C)C[C@@H]2CC[C@@H](OCCO)[C@H](OC)C2)CC(=O)[C@H](C)/C=C(\C)[C@@H](O)[C@@H](OC)C(=O)[C@H](C)C[C@H](C)/C=C/C=C/C=C/1C` [RAD, everolimus]: the “LS Mean Total Cholesterol Levels” value in series [1] ((−31) IL-1β CC genotype) amounted to 291.1 mg/dL; in series [1] ((−31) IL-1β CT genotype) it was 240.4 mg/dL; in series [1] ((−31) IL-1β TT genotype) it was 216.6 mg/dL; in series [1] ((−511) IL-1β CC genotype), 217.3 mg/dL; in series [1] ((−511) IL-1β CT genotype) it was 242.9 mg/dL; in series [1] ((−511) IL-1β TT genotype), 290.3 mg/dL. Moreover, the “odds ratio for increase in total blood cholesterol levels to a final concentration ≧240 mg/dL” value in series [1] (patients with a C at position (-31) in the IL-1β gene promoter (CC-CT vs TT)) was 7.23; in series [1] (patients with a T at position (-511) in the IL-1β gene promoter (CT-TT vs CC)) it was 5.67. In addition, the “LS Mean HDL levels” value was found to be 65.1 mg/dL in series [2] (setting [4]); 55 mg/dL in series [2] (setting [5]); 48.4 mg/dL in series [2] (setting [6]); 47.6 mg/dL in series [2] (setting [7]); 54.9 mg/dL in series [2] (setting [8]); 68.4 mg/dL in series [2] (setting [9]). Besides, the “LS Mean LDL Levels” value came to 145.1 mg/dL in series [3] (setting [4]); 124.1 mg/dL in series [3] (setting [5]); 112.2 mg/dL in series [3] (setting [6]); 112.5 mg/dL in series [3] (setting [7]); 123.6 mg/dL in series [3] (setting [8]); 144.5 mg/dL in series [3] (setting [9]).
Take `COc1c(C)c2c(c(O)c1C/C=C(\C)CCC(=O)OCCN1CCOCC1)C(=O)OC2` [MMF, mycophenolate mofetil]: the “LS Mean HDL levels” value is 50.4 mg/dL in series [2] (setting [10]); 56.8 mg/dL in series [2] (setting [11]); 45.5 mg/dL in series [2] (setting [12]); 45.5 mg/dL in series [2] (setting [13]); 56.8 mg/dL in series [2] (setting [14]); 50.4 mg/dL in series [2] (setting [15]). In addition, the “LS Mean LDL Levels” value in series [3] (setting [10]) was 143.1 mg/dL; in series [3] (setting [11]), 119.8 mg/dL; in series [3] (setting [12]), 107.8 mg/dL; in series [3] (setting [13]), 113.9 mg/dL; in series [3] (setting [14]), 118.6 mg/dL; in series [3] (setting [15]), 143.7 mg/dL.
